Measurements taken from paper PMC7762786, “The discovery of novel antitrypanosomal 4-phenyl-6-(pyridin-3-yl)pyrimidines” (European Journal of Medicinal Chemistry, 2021).

Legend:
rhodesain = rhodesain (Trypanosoma brucei rhodesiense, UniProt Q95PM0); experiment: In vitro rhodesain enzyme assay (Cbz-Phe-Arg-AMC substrate); assay type: biochemical; settings: compound at 50 μM; Cbz-Phe-Arg-AMC substrate 10, 5 and 1.25 μM; read-out: inhibition of rhodesain enzymatic activity
Procedure: Enzyme assays with rhodesain were performed as described previously [[36], [37], [38]]. The assay buffer consisted of 50 mM sodium acetate (pH 5.5), 5 mM EDTA, 200 mM NaCl and 0.005% Brij35. The enzyme buffer consisted of 50 mM sodium acetate (pH 5.5), 5 mM EDTA, 200 mM NaCl and 2 mM DTT. The substrate Cbz-Phe-Arg-AMC (Bachem, purchased as HCl salt) was diluted from a 1 mM stock solution to reach concentrations of 10, 5 and 1.25 μM. […] Inhibition against rhodesain was measured using Cbz-Phe-Arg-AMC as the substrate, which releases AMC (7-amino-4-methylcoumarin) after amide bond cleavage by the enzyme. Proteolytic activity of the enzyme was monitored spectrophotometrically by the increase of fluorescence intensity by release of AMC (emission at 460 nm) upon hydrolysis.

HDAC1 = target: T1, HDAC1 (Homo sapiens, UniProt Q13547); experiment: Histone deacetylase assay (HDAC-Glo I/II); assay type: biochemical; settings: 10 μM, result in words
T1 construct: purchased BPS Bioscience (San Diego, USA)
Procedure: (§1) Cytotoxicity was also determined against 786-O and A549 cells.
(§2) Experiments for determining pre-clinical in vitro ADME-Tox activities were performed as described by Moraes et al. and also described in the following sections 4.3.2.1 to 4.3.2.4.
(§3) Inhibition of histone deacetylase (HDAC) enzymes was determined using the bioluminogenic HDAC-Glo™ I/II assay (Promega Corp.) in 384-well assay format. Human recombinant HDAC enzymes were purchased from BPS Bioscience (San Diego, USA) and the standard inhibitor trichostatin A (Sigma-Aldrich) was dissolved to a yield stock solution in 100% v/v DMSO (stored at −20 °C). Plate handling was performed using a Cell Explorer HTS platform equipped with an Echo 550® Liquid Handler and Multidrop liquid handling system with luminescence measurements taken using an EnVision® multilabel 2103 reader. Compounds were added to plates (100 nL/well; 1% v/v DMSO) and the HDAC-Glo™ I/II assay reagent was prepared by (i) rehydration of lyophilised HDAC-Glo™ I/II substrate (with an acetylated peptide concentration of 100 μM) in 10 mL HDAC-Glo™ I/II assay buffer and (ii) addition of 10 μL of developer reagent (containing trypsin). The microtiter plates were mixed briefly by orbital shaking (500–700 rpm) and luminescence was measured at steady-state signal:background which was achieved after 20 min. The raw data were normalised relative to the positive and negative controls yielding the % inhibition for each compound.

HDAC3 = target: T2, HDAC3 (Homo sapiens, UniProt O15379); experiment: Histone deacetylase assay (HDAC-Glo I/II); assay type: biochemical; settings: 10 μM, result in words
T2 construct: purchased BPS Bioscience (San Diego, USA)
Procedure: as §1, §2, §3

HDAC6 = target: T3, HDAC6 (Homo sapiens, UniProt Q9UBN7); experiment: Histone deacetylase assay (HDAC-Glo I/II); assay type: biochemical; settings: 10 μM, result in words
T3 construct: purchased BPS Bioscience (San Diego, USA)
T3 sequence (Q9UBN7 1-1215): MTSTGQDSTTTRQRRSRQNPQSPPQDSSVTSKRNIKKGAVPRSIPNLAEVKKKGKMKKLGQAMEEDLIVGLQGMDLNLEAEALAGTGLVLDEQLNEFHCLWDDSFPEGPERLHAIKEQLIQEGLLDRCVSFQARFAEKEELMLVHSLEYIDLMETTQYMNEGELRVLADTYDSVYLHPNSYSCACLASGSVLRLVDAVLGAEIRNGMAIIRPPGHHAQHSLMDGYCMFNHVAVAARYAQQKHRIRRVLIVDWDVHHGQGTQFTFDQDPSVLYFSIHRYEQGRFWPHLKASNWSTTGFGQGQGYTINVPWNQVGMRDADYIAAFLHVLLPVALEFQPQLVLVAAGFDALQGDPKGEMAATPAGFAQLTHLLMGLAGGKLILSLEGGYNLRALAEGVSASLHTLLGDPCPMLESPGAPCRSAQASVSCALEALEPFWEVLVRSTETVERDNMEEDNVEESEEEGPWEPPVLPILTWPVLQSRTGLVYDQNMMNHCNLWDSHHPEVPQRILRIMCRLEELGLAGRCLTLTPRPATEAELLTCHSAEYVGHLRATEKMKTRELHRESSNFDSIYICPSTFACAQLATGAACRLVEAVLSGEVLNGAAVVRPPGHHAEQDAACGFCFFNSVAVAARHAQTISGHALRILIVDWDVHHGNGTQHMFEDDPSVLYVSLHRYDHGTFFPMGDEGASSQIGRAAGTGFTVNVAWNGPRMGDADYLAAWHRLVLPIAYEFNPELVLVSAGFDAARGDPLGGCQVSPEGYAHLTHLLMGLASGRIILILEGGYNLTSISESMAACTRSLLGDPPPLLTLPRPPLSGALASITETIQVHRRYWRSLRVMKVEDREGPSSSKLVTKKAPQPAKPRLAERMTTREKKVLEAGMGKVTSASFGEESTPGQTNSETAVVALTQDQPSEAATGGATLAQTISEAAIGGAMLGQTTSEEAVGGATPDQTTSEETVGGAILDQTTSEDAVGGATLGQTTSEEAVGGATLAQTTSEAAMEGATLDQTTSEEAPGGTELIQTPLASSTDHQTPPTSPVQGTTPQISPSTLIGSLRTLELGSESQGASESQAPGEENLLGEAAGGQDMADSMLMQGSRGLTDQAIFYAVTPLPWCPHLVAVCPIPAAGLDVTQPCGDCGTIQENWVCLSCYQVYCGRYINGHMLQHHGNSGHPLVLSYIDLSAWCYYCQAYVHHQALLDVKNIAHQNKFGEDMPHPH
Procedure: as §1, §2, §3

CYP3A4 = target: T4, CYP3A4 (Homo sapiens, UniProt P08684); experiment: Cytochrome P450 inhibition assay (P450-Glo); assay type: in vitro ADME; settings: 10 μM, result in words
T4 construct: purchased Corning; host or cells: baculovirus infected insect cells (BTI-TN-5B1-4)
Procedure: as §1, §2
(§4) The luminescence based P450-Glo™ (Promega Corp.) assay was used in 384-well assay format.
(§5) The cytochrome P450 (CYP) panel included microsomal preparations of cytochromes P450 1A2, 2C9, 2C19, 2D6, and 3A4 (Corning) from baculovirus infected insect cells (BTI-TN-5B1−4) which express cytochromes P450 and cytochrome c reductase (and cytochrome b5 for 3A4). Compounds were added (100 nL/well in 1% DMSO v/v) using the Echo 550® Liquid Handler followed by addition of 5 μL/well of CYP450/substrate mixture. Following incubation for 30 min at 37 °C, the reaction was initiated by the addition of 5 μL/well of the NADPH regeneration mixture. By the end of a further 30 min incubation (37 °C), the CYP450 reaction was stopped and the luciferase reaction was initiated by the addition of 10 μL/well of the luciferin detection reagent, followed by an additional 30 min of incubation at 37 °C. The luminescence signal was detected using an Infinite® M1000 PRO plate reader. […] The raw data were normalised relative to the positive and negative controls yielding the % inhibition for each compound.

CYP2C9 = target: T5, CYP2C9 (Homo sapiens, UniProt P11712); experiment: Cytochrome P450 inhibition assay (P450-Glo); assay type: in vitro ADME; settings: 10 μM, result in words
T5 construct: purchased Corning; host or cells: baculovirus infected insect cells (BTI-TN-5B1-4)
Procedure: as §1, §2, §4, §5

rhodesain, sequence (Q95PM0 entry or part of it): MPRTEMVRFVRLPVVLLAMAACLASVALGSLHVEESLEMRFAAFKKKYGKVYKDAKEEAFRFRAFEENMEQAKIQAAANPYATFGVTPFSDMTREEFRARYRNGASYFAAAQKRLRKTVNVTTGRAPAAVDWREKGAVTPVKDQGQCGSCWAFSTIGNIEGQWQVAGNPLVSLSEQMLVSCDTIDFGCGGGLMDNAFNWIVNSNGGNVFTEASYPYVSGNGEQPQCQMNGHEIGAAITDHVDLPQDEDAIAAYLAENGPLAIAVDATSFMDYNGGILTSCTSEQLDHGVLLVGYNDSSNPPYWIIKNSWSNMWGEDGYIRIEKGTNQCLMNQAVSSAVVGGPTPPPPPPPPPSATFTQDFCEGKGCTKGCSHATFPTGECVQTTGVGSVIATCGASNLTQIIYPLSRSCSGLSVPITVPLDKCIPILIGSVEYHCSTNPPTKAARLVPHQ
T1 sequence (Q13547 whole entry): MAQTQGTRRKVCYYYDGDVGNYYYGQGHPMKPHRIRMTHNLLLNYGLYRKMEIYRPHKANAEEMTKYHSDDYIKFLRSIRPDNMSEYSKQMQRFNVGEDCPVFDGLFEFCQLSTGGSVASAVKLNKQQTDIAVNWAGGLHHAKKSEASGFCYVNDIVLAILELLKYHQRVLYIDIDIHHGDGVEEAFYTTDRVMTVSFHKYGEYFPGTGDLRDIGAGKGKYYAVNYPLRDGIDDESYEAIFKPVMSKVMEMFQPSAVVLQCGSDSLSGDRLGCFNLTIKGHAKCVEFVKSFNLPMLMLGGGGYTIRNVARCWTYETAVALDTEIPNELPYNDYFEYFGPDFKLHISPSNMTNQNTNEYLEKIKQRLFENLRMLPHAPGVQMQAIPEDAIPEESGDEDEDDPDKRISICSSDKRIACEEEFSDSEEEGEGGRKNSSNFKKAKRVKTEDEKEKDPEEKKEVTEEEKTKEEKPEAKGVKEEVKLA
T2 sequence (O15379 whole entry): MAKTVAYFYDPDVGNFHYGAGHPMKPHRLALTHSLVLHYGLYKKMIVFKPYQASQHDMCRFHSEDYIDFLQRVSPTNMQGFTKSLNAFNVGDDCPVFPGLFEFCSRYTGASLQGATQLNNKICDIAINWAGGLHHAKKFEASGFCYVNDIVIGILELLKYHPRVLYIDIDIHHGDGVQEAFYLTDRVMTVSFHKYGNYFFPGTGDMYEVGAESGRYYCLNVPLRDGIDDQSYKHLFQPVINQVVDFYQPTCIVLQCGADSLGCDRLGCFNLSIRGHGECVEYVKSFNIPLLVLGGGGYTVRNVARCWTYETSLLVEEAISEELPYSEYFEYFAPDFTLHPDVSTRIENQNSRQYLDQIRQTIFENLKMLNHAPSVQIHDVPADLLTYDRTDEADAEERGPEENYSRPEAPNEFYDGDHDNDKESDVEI
T2 sequence (Q9Y618 395-489 partner limits assumed): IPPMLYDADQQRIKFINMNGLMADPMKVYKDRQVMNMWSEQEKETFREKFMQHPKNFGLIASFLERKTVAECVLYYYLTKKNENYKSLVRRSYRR
T5 sequence (P11712 whole entry): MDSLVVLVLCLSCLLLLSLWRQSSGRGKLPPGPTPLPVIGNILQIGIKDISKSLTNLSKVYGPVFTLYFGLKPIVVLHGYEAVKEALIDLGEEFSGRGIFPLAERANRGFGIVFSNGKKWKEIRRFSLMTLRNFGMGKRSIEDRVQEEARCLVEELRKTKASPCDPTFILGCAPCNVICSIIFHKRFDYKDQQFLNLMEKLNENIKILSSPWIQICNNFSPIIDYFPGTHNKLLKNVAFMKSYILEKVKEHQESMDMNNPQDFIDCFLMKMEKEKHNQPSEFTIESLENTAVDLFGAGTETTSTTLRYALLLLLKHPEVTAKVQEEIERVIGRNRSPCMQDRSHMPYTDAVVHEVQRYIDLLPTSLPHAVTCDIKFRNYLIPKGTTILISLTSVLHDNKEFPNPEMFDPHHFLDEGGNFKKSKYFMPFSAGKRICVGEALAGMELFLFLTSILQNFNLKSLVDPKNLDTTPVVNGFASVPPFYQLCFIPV
T4 sequence (P08684 2-503 limits assumed): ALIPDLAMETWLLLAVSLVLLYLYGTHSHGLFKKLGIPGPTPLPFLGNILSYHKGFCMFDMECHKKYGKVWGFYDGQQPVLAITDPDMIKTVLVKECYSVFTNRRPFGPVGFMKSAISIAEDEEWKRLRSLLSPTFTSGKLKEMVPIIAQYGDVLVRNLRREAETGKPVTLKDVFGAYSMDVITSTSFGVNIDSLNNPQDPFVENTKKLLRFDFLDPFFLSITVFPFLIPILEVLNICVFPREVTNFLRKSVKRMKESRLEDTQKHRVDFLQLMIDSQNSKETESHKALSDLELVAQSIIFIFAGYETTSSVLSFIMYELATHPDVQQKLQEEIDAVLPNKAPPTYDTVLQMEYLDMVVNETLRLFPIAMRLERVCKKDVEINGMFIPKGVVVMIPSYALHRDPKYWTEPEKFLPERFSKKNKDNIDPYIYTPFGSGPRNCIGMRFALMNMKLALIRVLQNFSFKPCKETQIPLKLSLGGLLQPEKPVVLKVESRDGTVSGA

## COc1ccccc1-c1cc(-c2cccnc2)nc(N)n1 [Compound 13, 4-(2-Methoxyphenyl)-6-(pyridin-3-yl)pyrimidin-2-amine]
rhodesain
  inhibition at 50 µM: ≤ 15%
HDAC1
  HDAC1 inhibition: No inhibition
HDAC3
  HDAC3 inhibition: No inhibition
HDAC6
  HDAC6 inhibition: No inhibition
CYP3A4
  CYP3A4 inhibition: favourable results
CYP2C9
  CYP2C9 inhibition: some inhibition
